In brackets after ≈: the same amount, converted by molar mass. One block for each molecule: values may come before it.
Columns and labels:
PfPKG [1] = target: T1, PfPKG (Plasmodium falciparum, UniProt Q8I719); test: in vitro PfPKG enzyme inhibition assay; type: biochemical; conditions: […] compound
CYP3A4 = CYP3A4 (Homo sapiens, UniProt P08684); test: in vitro CYP3A4 inhibition; type: biochemical
physchem = conditions: water
[2] = mouse, microsomes
PfPKG [3] = target: T1, PfPKG; test: in vitro PfPKG enzyme inhibition assay; type: biochemical; conditions: […] compound; remark: listed apart in the source
PfPKG [4] = target: T1, PfPKG; test: in vitro PfPKG enzyme inhibition assay; type: biochemical

T1 sequence (Q8I719 whole entry): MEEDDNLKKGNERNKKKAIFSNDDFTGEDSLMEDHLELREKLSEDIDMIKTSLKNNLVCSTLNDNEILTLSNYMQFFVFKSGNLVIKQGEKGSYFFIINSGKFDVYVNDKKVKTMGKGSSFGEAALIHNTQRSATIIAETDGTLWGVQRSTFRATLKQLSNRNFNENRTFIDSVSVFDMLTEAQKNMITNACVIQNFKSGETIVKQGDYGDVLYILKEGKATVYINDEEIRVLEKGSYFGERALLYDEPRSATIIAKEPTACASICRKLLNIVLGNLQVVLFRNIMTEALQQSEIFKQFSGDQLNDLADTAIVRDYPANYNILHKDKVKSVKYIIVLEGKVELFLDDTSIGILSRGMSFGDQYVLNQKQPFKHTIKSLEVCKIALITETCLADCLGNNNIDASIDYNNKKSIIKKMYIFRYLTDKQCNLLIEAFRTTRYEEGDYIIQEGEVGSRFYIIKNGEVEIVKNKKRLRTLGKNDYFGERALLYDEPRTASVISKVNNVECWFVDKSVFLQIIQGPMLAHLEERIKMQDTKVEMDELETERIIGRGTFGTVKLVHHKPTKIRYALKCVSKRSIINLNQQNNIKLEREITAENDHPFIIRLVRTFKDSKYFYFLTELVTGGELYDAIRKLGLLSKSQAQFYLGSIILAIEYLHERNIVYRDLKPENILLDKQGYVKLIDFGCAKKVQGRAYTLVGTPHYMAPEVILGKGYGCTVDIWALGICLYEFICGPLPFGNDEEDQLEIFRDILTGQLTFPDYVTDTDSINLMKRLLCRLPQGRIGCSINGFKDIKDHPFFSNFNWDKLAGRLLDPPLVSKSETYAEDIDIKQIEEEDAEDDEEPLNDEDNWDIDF
CYP3A4, sequence (P08684 2-503): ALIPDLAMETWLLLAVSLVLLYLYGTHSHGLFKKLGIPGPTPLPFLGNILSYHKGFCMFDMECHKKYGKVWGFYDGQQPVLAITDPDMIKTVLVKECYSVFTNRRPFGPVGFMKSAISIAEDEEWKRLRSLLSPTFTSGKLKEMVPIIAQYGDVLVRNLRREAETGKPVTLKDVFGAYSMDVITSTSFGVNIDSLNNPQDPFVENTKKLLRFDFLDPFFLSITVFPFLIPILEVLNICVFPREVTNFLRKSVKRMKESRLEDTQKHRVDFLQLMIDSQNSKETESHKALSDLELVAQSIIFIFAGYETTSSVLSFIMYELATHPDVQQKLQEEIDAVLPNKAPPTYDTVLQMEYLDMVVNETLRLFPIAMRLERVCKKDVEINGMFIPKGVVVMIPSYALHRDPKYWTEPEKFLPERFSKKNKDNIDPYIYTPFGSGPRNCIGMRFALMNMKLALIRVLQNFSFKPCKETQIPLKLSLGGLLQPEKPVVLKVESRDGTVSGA

Structure (SMILES): Cc1cn(-c2ccnc(NCC3CCCN3C(=O)c3nccs3)n2)c(-c2ccccc2)n1 (racemic) [10f]
% inh @ 1 μM (PfPKG [1]): 3%

Structure (SMILES): Cc1cn(-c2ccnc(NC3CCN(C(=O)c4nccs4)CC3)n2)c(-c2ccccc2)n1 [10e]
% inh @ 1 μM (PfPKG [1]): 5%

Structure (SMILES): O=C(c1nccs1)N1CC[C@@H](Nc2nccc(-n3cc(C4CC4)nc3-c3ccccc3)n2)C1 [14a]
solubility (physchem): 92 µM (≈ 42.1 µg/mL)
MLM t1/2 [2]: < 2 min

Structure (SMILES): O=C(c1nccs1)N1CC[C@@H](Nc2nccc(-n3cc(C4CC4)nc3-c3cccc(Cl)c3)n2)C1 [14b]
solubility (physchem): 28 µM (≈ 13.8 µg/mL)
MLM t1/2 [2]: <2 min

Structure (SMILES): Cc1cn(-c2ccnc(N[C@@H]3CCN(C(=O)c4nccs4)C3)n2)c(-c2ccccc2Cl)n1 [18b]
% inhib @ 1 μM (PfPKG [3]): 47%

Structure (SMILES): CN1CCC(c2cc(-c3ccc(F)cc3)c(-c3ccncc3)[nH]2)CC1 [compound 5, pyrrole 5]
IC50 (PfPKG [4]): 0.022 µM

Second part, the molecule after the results:

% inh @ 1 μM (PfPKG [1]): 4%
Structure (SMILES): Cc1cn(-c2ccnc(NC3CCCN(C(=O)c4nccs4)C3)n2)c(-c2ccccc2)n1 (racemic) [10d]

IC50 (CYP3A4): 0.94 µM
Structure (SMILES): Cc1cn(-c2ccnc(N[C@@H]3CCN(C(=O)c4nccs4)C3)n2)c(-c2ccccc2)n1 [10a]

% inh @ 1 μM (PfPKG [1]): 4%
Structure (SMILES): Cc1cn(-c2ccnc(N[C@H]3CCN(C(=O)c4nccs4)C3)n2)c(-c2ccccc2)n1 [10c]

From publication doi:10.1101/2021.11.05.467463v1 (biorxiv, 2021)
